The text below walks through data of patent EP4682146A1, “COMPOSITION INCLUDING NOVEL PYRIDOINDOLE DERIVATIVE COMPOUND AS ACTIVE INGREDIENT FOR PREVENTION OR TREATMENT OF NEURODEGENERATIVE DISEASES” (Neurotarge Co., Ltd., priority 2023, dated 2024).

pIC50: −log10 of the molar value.

In this experiment the target is T1, Tau-Synaptogyrin3 interaction (Homo sapiens, UniProt O43761+P10636).
T1 construct: expressed in transfected cells
T1 sequence (P10636 1-441 isoform P10636-8): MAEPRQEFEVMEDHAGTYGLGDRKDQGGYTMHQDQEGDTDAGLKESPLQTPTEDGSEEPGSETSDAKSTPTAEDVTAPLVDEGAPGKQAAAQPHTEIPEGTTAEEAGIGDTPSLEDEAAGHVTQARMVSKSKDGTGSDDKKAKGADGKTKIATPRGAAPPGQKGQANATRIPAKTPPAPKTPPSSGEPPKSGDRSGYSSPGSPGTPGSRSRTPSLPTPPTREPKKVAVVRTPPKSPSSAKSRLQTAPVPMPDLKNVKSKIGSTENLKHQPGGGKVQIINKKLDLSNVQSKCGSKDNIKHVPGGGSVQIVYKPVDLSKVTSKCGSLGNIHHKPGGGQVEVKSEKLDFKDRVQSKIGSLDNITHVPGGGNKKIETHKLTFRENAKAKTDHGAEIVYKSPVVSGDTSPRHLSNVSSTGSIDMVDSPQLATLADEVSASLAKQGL
T1 sequence (O43761 whole entry): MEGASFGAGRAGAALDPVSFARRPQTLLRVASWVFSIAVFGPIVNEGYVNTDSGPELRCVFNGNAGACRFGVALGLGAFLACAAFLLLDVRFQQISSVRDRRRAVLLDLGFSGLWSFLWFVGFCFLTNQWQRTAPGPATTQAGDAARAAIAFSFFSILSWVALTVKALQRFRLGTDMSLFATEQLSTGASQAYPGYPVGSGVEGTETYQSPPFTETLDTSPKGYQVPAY
Nature of the experiment: Cell-based split luciferase (NanoBit) protein complementary assay for Tau-Synaptogyrin3 interaction in stable cell line HEK293T-TK252-1E2. As to conditions: HEK293T-TK252-1E2 cells, 48 hrs compound treatment, L/F value (luciferase activity/fluorescent intensity) compared to DMSO control. As for the experimental part: Live cell luciferase assay: Live cell luciferase activity was measured using NanoGlo® Live Cell Assay System (Cat# N2012. Promega, WI, USA), according to manufacturer's instruction. All microplate-based measurement was performed with BioTek Synergy H1 (Agilent. CA, USA).
For producing HEK293T-TK252 stable cell line for screening, BglII-linearized pTK252 was transfected to HEK293T cells. After 24 hrs transfection, the transfected cells were cultured in the culture media containing 1 µg/ml puromycin (10 mM in DMSO, Cat# J61278/ Alfa Aesar. ThermoFisher Korea, Seoul, Korea) for 9 days. Regular media change was performed in every 3 days with fresh puromycin of indicating concentration during the whole selection period. The selected cells were trypsinized and diluted to 5 cells/ml and seeded to 4x 96 well cell culture plates (100 µl/well), and cultured with the cell culture media containing 1 µg/ml puromycin for 11 days. 18 wells that contained only GFP-positive cells were selected for expansion, and cultured with the cell culture media containing 0.1-0.2 µg/ml puromycin for 14 days. 10 clones were discarded during the expansion due to emerging of non-GFP cells, and 8 clones were validated. The selected clone (1E2) was cultured with the cell culture media containing 0.5 µg/ml puromycin for further experiments.
3 µmol of 1,728 compounds were purchased from Otava Chemicals MB (Vilniaus, Lithuania), dissolved into 300 µl DMSO (10 mM) and stored at -80°C. 4x10^4 HEK293T-TK252-1E2 cells were seeded with 100 µl of the cell culture media into 96 white well cell culture plates (Cat# 30196. SPL, Seoul, Korea), 48 hrs prior to compound treatment. For 10 µM compound treatment, 10 mM compound stock was diluted to 50 µM with the cell culture media, and 25 µl of the diluted compound was added to the designated wells of the 96 well plates. For dose-response experiments, the amount of compounds for dilution was adjusted to fit the volume indicated above. After 48 hrs compound treatment, the cells were washed once with OptiMEM and live cell luciferase activity, fluorescent intensity and fluorescence area scan was measured.
1,728 compounds were treated at 10 µM to HEK293T-TK252-1E2 cells and incubated for 48 hrs. […] Single wash step with culture media without FBS was included before measurement to discard dead cells and to remove FBS that affects luciferase assay. […] Fluorescent intensity was taken for normalization, which is expected to be proportion to the cell number at the measuring point. L/F value which is luciferase activity normalized with fluorescent intensity (L/F = Luciferase activity/ Fluorescent intensity) was calculated for all measurements and compared to L/F value of DMSO controls to calculated the size of inhibitory effect. […] Fluorescence area scan (FA) performed right after luciferase activity and fluorescent intensity measurement, to validate total remaining fluorescent cells in a well as a proxy to the cellular toxicity. FA value was in proportion to WST assay results (data not shown), and average CV of triplicates of all measurements was 0.04.
61 compounds were further tested for dose-response profile, based on inhibitory effect that was measured by L/F value (<60%) and FA-based cell viability (>90%) at 10 µM compared to DMSO control. 10 compounds were considered as hit compounds through three times of reproduction.
A word on the pIC50: it is the IC50 on a negative log10 scale, so that one unit is a factor of ten. As to `Cc1ccc(-c2ccc3[nH]c4c(c3c2)CN(C(=S)Nc2ccc(C#N)cc2)CC4)cc1` [Formula 77, N-(4-cyanophenyl)-8-(p-tolyl)-1,3,4,5-tetrahydro-2H-pyrido[4,3-b]indole-2-carbothioamide], the pIC50 was 4.60 to 4.92.

Take `Cc1ccc(-c2ccc3[nH]c4c(c3c2)CN(C(=O)c2ccnc(C)c2)CC4)cc1` [Formula 41, (2-methylpyridin-4-yl)(8-(p-tolyl)-1,3,4,5-tetrahydro-2H-pyrido[4,3-b]indol-2-yl)methanone]: the pIC50 was 4.92 to 5.52.

As to `CN(C)c1ccc(-c2ccc3[nH]c4c(c3c2)CN(C(=O)c2ccccc2)CC4)cc1` [Formula 73, (8-(4-(Dimethylamino)phenyl)-1,3,4,5-tetrahydro-2H-pyrido[4,3-b]indol-2-yl)(phenyl)methanone], the pIC50 is 4.92 to 5.52.

For the compound `COc1cccc(C(=O)N2CCc3[nH]c4ccc(-c5ccccc5)cc4c3C2)c1` [Formula 18, (3-methoxyphenyl)(8-phenyl-1,3,4,5-tetrahydro-2H-pyrido[4,3-b]indol-2-yl)methanone], the pIC50 was 4.92 to 5.52.

Turning to `N#Cc1ccc(-c2ccc3[nH]c4c(c3c2)CN(C(=O)c2ccccc2)CC4)cc1` [Formula 50], the pIC50 was above 5.52.

Regarding `COc1ccc(C(=O)N2CCc3[nH]c4ccc(-c5ccccc5)cc4c3C2)cc1` [Formula 17, (4-methoxyphenyl)(8-phenyl-1,3,4,5-tetrahydro-2H-pyrido[4,3-b]indol-2-yl)methanone], the pIC50 was 4.92 to 5.52.

As to `O=C(c1cncnc1)N1CCc2[nH]c3ccc(-c4ccccc4)cc3c2C1` [Formula 8, (8-phenyl-1,3,4,5-tetrahydro-2H-pyrido[4,3-b]indol-2-yl)(pyrimidin-5-yl)methanone], the negative-log IC50 (pIC50) was 4.92 to 5.52.

In the case of `Cc1ccc(C(=O)N2CCc3[nH]c4ccc(-c5ccc(C#N)cc5)cc4c3C2)cc1` [Formula 52], the pIC50 was above 5.52.

For the compound `Cc1ccccc1-c1ccc2[nH]c3c(c2c1)CN(C(=O)c1nccs1)CC3` [Formula 25, Thiazol-2-yl(8-(o-tolyl)-1,3,4,5-tetrahydro-2H-pyrido[4,3-b]indol-2-yl)methanone], the pIC50 is 4.92 to 5.52.

`COc1ccc(-c2ccc3[nH]c4c(c3c2)CN(C(=O)c2cccnc2)CC4)cc1` [Formula 63, (8-(4-Methoxyphenyl)-1,3,4,5-tetrahydro-2H-pyrido[4,3-b]indol-2-yl)(pyridin-3-yl)methanone]: the pIC50 was above 5.52.

Consider `Cc1ccccc1-c1ccc2[nH]c3c(c2c1)CN(C(=O)c1cccc2c1ccn2C)CC3` [Formula 24, (1-methyl-1H-indol-4-yl)(8-(o-tolyl)-1,3,4,5-tetrahydro-2H-pyrido[4,3-b]indol-2-yl)methanone], for which the pIC50 is 4.92 to 5.52.

`O=C(c1ccccc1)N1CCc2[nH]c3ccc(-c4cccnc4)cc3c2C1` [Formula 42, Phenyl(8-(pyridin-3-yl)-1,3,4,5-tetrahydro-2H-pyrido[4,3-b]indol-2-yl)methanone]: the pIC50 was 4.60 to 4.92.

With `O=C(c1ccncc1)N1CCc2[nH]c3ccc(-c4ccccc4)cc3c2C1` [Formula 3], the pIC50 is 4.92 to 5.52.

Turning to `O=C(c1ccccc1)N1CCc2[nH]c3ccc(Nc4ccc(Cl)cc4)cc3c2C1` [Formula 33, (8-((4-chlorophenyl)amino)-1,3,4,5-tetrahydro-2H-pyrido[4,3-b]indol-2-yl)(phenyl)methanone], the pIC50 was 4.92 to 5.52.

As to `O=C(c1cccnc1)N1CCc2[nH]c3ccc(Nc4ccc(Cl)cc4)cc3c2C1` [Formula 32, (8-((4-chlorophenyl)amino)-1,3,4,5-tetrahydro-2H-pyrido[4,3-b]indol-2-yl)(pyridin-3-yl)methanone], the pIC50 is above 5.52.

Consider `O=C(c1cccnc1)N1CCc2[nH]c3ccc(-c4ccc(F)cc4)cc3c2C1` [Formula 65, (8-(4-fluorophenyl)-1,3,4,5-tetrahydro-2H-pyrido[4,3-b]indol-2-yl)(pyridin-3-yl)methanone], for which the pIC50 is above 5.52.

For `Cc1ccc(C(=O)N2CCc3[nH]c4ccc(-c5ccccc5)cc4c3C2)cc1` [Formula 14, (8-phenyl-1,3,4,5-tetrahydro-2H-pyrido[4,3-b]indol-2-yl)(p-tolyl)methanone], the pIC50 is above 5.52.

For `CCn1c2c(c3cc(-c4ccc(C)cc4)ccc31)CN(C(=O)c1cccnc1)CC2` [Formula 46, (5-ethyl-8-(p-tolyl)-1,3,4,5-tetrahydro-2H-pyrido[4,3-b]indol-2-yl)(pyridin-3-yl)methanone], the negative logarithm of the IC50 (pIC50) was 4.92 to 5.52.

For the compound `Cc1ccc(-c2ccc3[nH]c4c(c3c2)CN(C(=O)c2cccc(C)c2)CC4)cc1` [Formula 38, m-Tolyl(8-(p-Tolyl)-1,3,4,5-tetrahydro-2H-pyrido[4,3-b]indol-2-yl)methanone], the negative-log IC50 (pIC50) is 4.60 to 4.92.

In the case of `O=C(c1ccccc1)N1CCc2[nH]c3ccc(-c4ccc(C5CCCCC5)cc4)cc3c2C1` [Formula 66, (8-(4-Cyclohexylphenyl)-1,3,4,5-tetrahydro-2H-pyrido[4,3-b]indol-2-yl)(phenyl)methanone], the pIC50 was 4.60 to 4.92.

With `Cc1ccccc1-c1ccc2[nH]c3c(c2c1)CN(C(=O)c1cccnc1)CC3` [Formula 20, Pyridin-3-yl(8-(o-tolyl)-1,3,4,5-tetrahydro-2H-pyrido[4,3-b]indol-2-yl)methanone], the pIC50 was 4.92 to 5.52.

With `Cc1ccc(NC(=S)N2CCc3[nH]c4ccc(-c5ccc(C)cc5)cc4c3C2)cc1` [Formula 76, N,8-di-p-tolyl-1,3,4,5-tetrahydro-2H-pyrido[4,3-b]indole-2-carbothioamide], the pIC50 was 4.92 to 5.52.

In the case of `O=S(=O)(c1cccnc1)N1CCc2[nH]c3cc(-c4ccccc4)ccc3c2C1` [Formula 34, 7-phenyl-2-(pyridin-3-ylsulfonyl)-2,3,4,5-tetrahydro-1H-pyrido[4,3-b]indole], the pIC50 is 4.92 to 5.52.

Turning to `Cc1ccc(-c2ccc3[nH]c4c(c3c2)CN(C(=O)c2cccnc2)CC4)cn1` [Formula 48, (8-(6-methylpyridin-3-yl)-1,3,4,5-tetrahydro-2H-pyrido[4,3-b]indol-2-yl)(pyridin-3-yl)methanone], the pIC50 is 4.60 to 4.92.

Take `COc1ccc(C(=O)N2CCc3[nH]c4ccc(-c5ccc(C)cc5)cc4c3C2)cc1` [Formula 39, (4-methoxyphenyl)(8-(p-tolyl)-1,3,4,5-tetrahydro-2H-pyrido[4,3-b]indol-2-yl)methanone]: the negative-log IC50 (pIC50) was 4.92 to 5.52.

With `Cc1cccc(-c2ccc3[nH]c4c(c3c2)CN(C(=O)c2ccccc2)CC4)c1` [Formula 28, Phenyl(8-(m-tolyl)-1,3,4,5-tetrahydro-2H-pyrido[4,3-b]indol-2-yl)methanone], the pIC50 is above 5.52.

Take `O=C(c1cccnc1)N1CCc2[nH]c3ccc(-c4ccccc4)cc3c2C1` [Formula 2, (8-phenyl-1,3,4,5-tetrahydro-2H-pyrido[4,3-b]indol-2-yl)(pyridin-3-yl)methanone]: the negative logarithm of the IC50 (pIC50) was 4.92 to 5.52.

As for `O=C(c1ccccc1)N1CCc2[nH]c3ccc(-c4ccccc4)cc3c2C1` [Formula 9, Phenyl(8-phenyl-1,3,4,5-tetrahydro-2H-pyrido[4,3-b]indol-2-yl)methanone], the pIC50 is 4.92 to 5.52.

With `COc1ccc(-c2ccc3[nH]c4c(c3c2)CN(C(=O)c2ccccc2)CC4)cc1` [Formula 62, (8-(4-Methoxyphenyl)-1,3,4,5-tetrahydro-2H-pyrido[4,3-b]indol-2-yl)(phenyl)methanone], the pIC50 is 4.92 to 5.52.
